Molecular target: T1, YOC-1 (Yokenella regensburgei, UniProt A0AB38FXT7)
T1 construct: gene C7387_3136; signal peptide (residues 1-22) removed; pCold I in E. coli BL21, N-terminal His tag removed by enterokinase
Assay: nitrocefin hydrolysis inhibition, spectrophotometric
Assay type: biochemical
Settings: 100 μM nitrocefin; 5 min preincubation; 37°C

T1 sequence (A0AB38FXT7 entry or part of it): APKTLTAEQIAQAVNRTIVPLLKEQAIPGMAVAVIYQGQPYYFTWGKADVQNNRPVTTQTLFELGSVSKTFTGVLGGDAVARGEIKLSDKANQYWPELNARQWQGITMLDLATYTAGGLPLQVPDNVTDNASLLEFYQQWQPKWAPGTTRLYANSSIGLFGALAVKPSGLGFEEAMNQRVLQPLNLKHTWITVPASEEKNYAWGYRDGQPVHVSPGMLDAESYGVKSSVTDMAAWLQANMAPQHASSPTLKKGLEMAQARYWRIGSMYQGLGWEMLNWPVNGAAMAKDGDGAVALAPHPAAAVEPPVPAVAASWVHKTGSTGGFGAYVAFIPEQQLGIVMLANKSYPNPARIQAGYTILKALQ

SMILES	IC50
Nc1nc2c(ncn2[C@@H]2O[C@H](COP(=O)(O)O)[C@@H](O)[C@H]2O)c(=O)[nH]1 [GMP]	81.73 ± 0.02 µM
NC(=O)[C@@H]1CC[C@@H]2CN1C(=O)N2OS(=O)(=O)O [avibactam]	0.00117 ± 0.0002 µM
O=C(O)[C@H]1/C(=C/CO)O[C@@H]2CC(=O)N21 [clavulanic acid]	57.33 ± 0.03 µM
